Reference: ChEMBL document CHEMBL1201862, “PubChem BioAssay data set” (2004)
Activity calls are given as the source filed them.

What was measured:
[1] = biological target: NS3 (Hepatitis C virus, UniProt A3EZJ3); experiment: PubChem AID 2173; set-up: species or system Hepacivirus hominis
[2] = biological target: Nucleotide-binding oligomerization domain-containing protein 2 (Homo sapiens, UniProt Q9HC29); experiment: inhibition of NOD2-driven NF-kB reporter – cell-based, luminescence, uHTS, HEK293 (AID 1566); type: functional
[3] = system: HEK293; experiment: inhibition of NOD1-driven NF-kB reporter – cell-based, luminescence, uHTS, primary screen (AID 1578); type: functional; conditions: Homo sapiens
[4] = system: HEK293; experiment: cells; type: functional, cell-based; conditions: Homo sapiens
[5] = system: HEK293; experiment: cells; type: functional, cell-based; conditions: Homo sapiens; remark: listed apart in the source
[6] = system: HEK293; experiment: cells; type: functional, cell-based; conditions: Homo sapiens; remark: listed apart in the source
[7] = biological target: Voltage-dependent T-type calcium channel subunit alpha-1H (Homo sapiens, UniProt O95180); type: functional;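 note: channel activity triggered by adding a high calcium stimulation buffer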
Chain of Voltage-dependent T-type calcium channel subunit alpha-1H (O95180 whole entry): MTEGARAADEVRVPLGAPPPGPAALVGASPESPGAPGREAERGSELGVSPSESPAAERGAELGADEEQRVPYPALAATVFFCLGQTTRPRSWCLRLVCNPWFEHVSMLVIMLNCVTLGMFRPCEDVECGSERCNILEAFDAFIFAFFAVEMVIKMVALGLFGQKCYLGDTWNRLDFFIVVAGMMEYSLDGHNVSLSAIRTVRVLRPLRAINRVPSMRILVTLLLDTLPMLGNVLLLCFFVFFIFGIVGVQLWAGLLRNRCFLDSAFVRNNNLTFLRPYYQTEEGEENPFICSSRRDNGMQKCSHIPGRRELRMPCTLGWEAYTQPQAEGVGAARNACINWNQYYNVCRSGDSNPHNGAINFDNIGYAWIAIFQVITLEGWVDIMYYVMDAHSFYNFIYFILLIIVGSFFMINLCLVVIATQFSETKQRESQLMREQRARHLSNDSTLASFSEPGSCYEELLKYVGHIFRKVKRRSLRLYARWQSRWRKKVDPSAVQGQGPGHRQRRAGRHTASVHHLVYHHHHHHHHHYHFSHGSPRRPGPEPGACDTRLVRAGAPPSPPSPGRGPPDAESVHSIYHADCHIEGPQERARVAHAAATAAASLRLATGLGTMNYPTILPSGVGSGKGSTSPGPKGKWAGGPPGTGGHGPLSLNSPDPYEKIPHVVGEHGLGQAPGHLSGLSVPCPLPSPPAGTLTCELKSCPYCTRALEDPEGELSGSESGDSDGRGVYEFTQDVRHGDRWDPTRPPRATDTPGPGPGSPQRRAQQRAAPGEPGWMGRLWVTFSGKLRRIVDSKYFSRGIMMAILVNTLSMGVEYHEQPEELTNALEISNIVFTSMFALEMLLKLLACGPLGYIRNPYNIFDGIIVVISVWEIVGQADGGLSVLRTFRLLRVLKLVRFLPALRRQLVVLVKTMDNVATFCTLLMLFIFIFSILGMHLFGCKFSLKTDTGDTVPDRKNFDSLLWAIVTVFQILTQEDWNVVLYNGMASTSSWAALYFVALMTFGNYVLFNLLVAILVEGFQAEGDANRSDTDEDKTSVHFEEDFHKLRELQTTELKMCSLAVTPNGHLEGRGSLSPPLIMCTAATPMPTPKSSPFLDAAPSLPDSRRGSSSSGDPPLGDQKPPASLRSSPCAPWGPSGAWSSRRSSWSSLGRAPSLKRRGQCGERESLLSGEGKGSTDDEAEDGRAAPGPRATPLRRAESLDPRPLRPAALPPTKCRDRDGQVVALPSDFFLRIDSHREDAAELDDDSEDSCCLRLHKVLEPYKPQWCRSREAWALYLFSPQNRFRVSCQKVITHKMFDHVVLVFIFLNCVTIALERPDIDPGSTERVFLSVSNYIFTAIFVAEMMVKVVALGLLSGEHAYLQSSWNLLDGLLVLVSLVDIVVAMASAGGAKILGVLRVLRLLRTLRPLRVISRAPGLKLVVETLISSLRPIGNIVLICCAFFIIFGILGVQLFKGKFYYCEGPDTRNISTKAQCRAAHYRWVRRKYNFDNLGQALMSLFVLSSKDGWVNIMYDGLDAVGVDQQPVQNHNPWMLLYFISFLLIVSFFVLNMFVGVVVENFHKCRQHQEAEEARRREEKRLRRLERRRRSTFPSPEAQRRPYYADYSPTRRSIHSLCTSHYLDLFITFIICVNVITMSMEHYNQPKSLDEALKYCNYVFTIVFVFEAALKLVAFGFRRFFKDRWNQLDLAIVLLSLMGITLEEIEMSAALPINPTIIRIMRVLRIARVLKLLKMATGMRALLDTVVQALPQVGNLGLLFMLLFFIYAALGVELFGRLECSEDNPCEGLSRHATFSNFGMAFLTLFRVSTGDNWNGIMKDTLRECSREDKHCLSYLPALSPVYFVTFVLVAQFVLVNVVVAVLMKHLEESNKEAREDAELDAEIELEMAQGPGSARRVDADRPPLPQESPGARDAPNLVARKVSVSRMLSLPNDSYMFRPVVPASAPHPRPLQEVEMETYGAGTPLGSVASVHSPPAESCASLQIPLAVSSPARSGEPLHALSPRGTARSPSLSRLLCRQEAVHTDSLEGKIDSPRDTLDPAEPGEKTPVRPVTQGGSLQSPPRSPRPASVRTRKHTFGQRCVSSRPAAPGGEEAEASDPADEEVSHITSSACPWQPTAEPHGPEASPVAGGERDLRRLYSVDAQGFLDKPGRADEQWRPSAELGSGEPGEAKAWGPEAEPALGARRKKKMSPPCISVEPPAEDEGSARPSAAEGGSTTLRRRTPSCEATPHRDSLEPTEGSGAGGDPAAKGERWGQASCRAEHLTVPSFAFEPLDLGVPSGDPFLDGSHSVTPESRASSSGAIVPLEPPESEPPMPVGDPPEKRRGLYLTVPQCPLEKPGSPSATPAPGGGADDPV

[8] = biological target: Beta-galactosidase (Escherichia coli, UniProt Q8VNN2); experiment: PubChem AID 485352; type: functional
Chain of Beta-galactosidase (Q8VNN2 whole entry): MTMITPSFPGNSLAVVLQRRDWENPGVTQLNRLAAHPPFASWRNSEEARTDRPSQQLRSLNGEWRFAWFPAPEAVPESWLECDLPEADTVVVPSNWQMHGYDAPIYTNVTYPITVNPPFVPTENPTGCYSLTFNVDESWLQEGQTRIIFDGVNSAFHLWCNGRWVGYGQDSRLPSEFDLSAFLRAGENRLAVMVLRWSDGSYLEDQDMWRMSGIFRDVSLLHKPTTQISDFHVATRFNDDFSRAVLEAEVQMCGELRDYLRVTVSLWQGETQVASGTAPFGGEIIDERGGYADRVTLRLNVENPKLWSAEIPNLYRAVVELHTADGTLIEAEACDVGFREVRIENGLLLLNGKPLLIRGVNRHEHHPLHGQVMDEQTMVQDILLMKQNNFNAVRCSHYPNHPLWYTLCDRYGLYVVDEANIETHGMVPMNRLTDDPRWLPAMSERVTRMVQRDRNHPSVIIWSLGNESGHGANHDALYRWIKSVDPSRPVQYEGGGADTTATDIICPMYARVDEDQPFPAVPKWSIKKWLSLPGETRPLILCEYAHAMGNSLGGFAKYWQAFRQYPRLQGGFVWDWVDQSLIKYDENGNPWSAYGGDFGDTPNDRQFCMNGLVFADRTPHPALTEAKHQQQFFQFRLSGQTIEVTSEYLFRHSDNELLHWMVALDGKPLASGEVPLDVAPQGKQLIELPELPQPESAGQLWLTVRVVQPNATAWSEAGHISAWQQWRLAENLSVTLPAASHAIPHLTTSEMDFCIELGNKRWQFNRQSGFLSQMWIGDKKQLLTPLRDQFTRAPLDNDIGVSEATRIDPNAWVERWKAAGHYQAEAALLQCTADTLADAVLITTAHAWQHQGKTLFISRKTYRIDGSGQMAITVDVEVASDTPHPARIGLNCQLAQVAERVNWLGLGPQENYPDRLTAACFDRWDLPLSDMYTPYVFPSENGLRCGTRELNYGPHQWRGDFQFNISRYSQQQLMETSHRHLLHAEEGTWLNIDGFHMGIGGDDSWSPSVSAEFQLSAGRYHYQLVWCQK

[9] = A Cell Based Secondary Assay To Explore Cytotoxicity of Compounds that Sensitize Mycobacterium Tuberculosis to Beta-Lactam Antibiotics.; type: functional
[10] = Luminescence Cell-Based Dose Retest to Confirm Inhibitors of Cancer Stem Cells. [Related pubchem assays (depositor defined):AID2717, AID2721]; type: functional, Homo sapiens; conditions: Homo sapiens
[11] = biological target: T1, Ubiquitin-conjugating enzyme E2 N (Homo sapiens, UniProt P61088); type: functional;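 note: Dose-response confirmation in a TR-FRET assay detecting UBC13-driven polyubiquitin chain formation, inhibition measured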
T1 sequence (P61088 whole entry): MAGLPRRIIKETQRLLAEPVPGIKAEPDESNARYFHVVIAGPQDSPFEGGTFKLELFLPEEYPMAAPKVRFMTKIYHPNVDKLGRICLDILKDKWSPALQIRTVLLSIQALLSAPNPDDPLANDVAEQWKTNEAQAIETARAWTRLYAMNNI

[12] = biological target: T2, Type-1 angiotensin II receptor (Homo sapiens, UniProt P30556); experiment: antagonism of angiotensin II type 1 receptor – cell-based, uHTS hits, selectivity assay for APJ receptor antagonist project, dose response (AID 463214); type: functional;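 note: antagonist potency against angiotensin II stimulated AT1 response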
T2 sequence (P30556 whole entry): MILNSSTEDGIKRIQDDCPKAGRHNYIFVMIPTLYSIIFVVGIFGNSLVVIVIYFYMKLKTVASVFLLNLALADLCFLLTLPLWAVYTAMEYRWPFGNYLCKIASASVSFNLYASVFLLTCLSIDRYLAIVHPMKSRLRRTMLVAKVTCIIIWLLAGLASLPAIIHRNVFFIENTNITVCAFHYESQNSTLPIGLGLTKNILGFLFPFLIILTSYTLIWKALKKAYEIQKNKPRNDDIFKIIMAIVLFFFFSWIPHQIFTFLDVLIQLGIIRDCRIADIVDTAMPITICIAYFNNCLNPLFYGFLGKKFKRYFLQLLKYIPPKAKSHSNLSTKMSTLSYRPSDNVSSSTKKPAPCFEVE

[13] = biological target: T3, CAAX prenyl protease 2 (Saccharomyces cerevisiae S288c, UniProt Q03530); type: biochemical
T3 sequence (Q03530 whole entry): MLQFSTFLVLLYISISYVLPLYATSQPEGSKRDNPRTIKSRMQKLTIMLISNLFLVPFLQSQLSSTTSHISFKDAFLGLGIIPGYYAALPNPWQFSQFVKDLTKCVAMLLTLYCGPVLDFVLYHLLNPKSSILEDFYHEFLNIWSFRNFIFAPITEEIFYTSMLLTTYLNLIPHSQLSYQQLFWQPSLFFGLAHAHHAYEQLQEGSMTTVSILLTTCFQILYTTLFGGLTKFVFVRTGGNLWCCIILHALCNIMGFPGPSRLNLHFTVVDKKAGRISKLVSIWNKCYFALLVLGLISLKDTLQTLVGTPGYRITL

[14] = biological target: Neurotensin receptor type 1 (Homo sapiens, UniProt P30989); type: functional;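 note: Image-based confirmatory dose-response assay measuring agonist activity at NTR1; NTR1-expressing U2OS osteosarcoma cells imaged for beta-arrestin GFP spot formation; agonist potency where compounds increase beta-arrestin recruitment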
Chain of Neurotensin receptor type 1 (P30989 whole entry): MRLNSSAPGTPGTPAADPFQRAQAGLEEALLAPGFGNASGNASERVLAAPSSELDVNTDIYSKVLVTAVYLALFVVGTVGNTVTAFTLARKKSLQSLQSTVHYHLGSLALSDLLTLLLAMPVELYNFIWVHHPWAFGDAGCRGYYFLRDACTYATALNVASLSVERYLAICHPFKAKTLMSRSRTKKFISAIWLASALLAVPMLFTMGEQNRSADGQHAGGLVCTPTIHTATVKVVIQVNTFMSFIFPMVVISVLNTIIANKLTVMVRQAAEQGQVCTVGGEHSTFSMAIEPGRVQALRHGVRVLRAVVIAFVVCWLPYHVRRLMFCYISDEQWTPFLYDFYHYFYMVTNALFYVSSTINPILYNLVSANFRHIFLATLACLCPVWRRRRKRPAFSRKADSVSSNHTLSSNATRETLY

[15] = biological target: Nonstructural protein 1 (Influenza A virus, UniProt Q194T2); type: functional, Influenza A virus (A/California/07/2009(H1N1))
[16] = biological target: Genome polyprotein (dengue virus type 2, UniProt P29990); experiment: flavivirus cap methylation enzyme inhibition – biochemical, confirmation dose response, primary screen (AID 588689); type: functional
Chain of Genome polyprotein (P29990 2492-3391 limits assumed): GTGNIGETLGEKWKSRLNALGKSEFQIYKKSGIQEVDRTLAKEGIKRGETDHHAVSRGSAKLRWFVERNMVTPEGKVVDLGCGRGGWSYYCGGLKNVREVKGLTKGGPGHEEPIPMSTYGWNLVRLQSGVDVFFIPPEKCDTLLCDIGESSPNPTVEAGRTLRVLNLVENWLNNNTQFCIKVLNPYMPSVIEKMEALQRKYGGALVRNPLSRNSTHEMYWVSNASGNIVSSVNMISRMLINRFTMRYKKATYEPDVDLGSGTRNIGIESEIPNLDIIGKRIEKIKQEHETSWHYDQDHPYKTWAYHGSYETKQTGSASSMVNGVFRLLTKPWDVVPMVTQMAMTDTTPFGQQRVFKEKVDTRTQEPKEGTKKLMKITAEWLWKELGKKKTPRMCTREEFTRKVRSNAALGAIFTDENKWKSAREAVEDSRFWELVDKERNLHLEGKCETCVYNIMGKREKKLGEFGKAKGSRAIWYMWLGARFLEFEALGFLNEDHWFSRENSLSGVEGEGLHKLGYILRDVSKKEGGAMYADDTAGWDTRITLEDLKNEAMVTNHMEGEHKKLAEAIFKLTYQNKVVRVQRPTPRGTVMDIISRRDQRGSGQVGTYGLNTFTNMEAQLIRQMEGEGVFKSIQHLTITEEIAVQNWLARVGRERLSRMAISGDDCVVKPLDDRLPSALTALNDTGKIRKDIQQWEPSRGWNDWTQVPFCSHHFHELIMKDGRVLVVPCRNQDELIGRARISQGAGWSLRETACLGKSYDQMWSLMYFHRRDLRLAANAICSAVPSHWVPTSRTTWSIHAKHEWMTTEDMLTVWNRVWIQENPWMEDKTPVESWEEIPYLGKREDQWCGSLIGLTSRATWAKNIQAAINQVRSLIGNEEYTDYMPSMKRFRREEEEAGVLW

[17] = system: Vero; experiment: cells; type: functional; conditions: Chlorocebus sabaeus
[18] = system: Vero; experiment: viability of Vero cells under compound – cytotoxicity control for flavivirus capping enzyme inhibitors (AID 588742); type: functional; conditions: Chlorocebus sabaeus
[19] = THP-1 cell cytotoxicity, dose response, cytotoxicity control for non-replicating M. tuberculosis project (AID 489025); type: functional
[20] = microbe, parasite or virus in culture; type: functional; conditions: Mycobacterium tuberculosis
[21] = system: Streptococcus; experiment: GAS UMAA2166 growth inhibition – luminescence, BacTiterGlo, counter-screen for streptokinase expression inhibitor project, dose response (AID 1915); type: functional, organism-based;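 note: potency for reduction of bacterial viability or growth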
[22] = biological target: T4, Streptokinase A (Streptococcus pyogenes serotype M1, UniProt P10520); experiment: viability-normalized secreted streptokinase activity reduction – plasminogen activation absorbance, OD405, dose response (AID 1914); type: functional, Streptococcus pyogenes M1 GAS;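 note: secreted streptokinase activity via plasminogen activation per viability signal from cell pellet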
T4 sequence (P10520 whole entry): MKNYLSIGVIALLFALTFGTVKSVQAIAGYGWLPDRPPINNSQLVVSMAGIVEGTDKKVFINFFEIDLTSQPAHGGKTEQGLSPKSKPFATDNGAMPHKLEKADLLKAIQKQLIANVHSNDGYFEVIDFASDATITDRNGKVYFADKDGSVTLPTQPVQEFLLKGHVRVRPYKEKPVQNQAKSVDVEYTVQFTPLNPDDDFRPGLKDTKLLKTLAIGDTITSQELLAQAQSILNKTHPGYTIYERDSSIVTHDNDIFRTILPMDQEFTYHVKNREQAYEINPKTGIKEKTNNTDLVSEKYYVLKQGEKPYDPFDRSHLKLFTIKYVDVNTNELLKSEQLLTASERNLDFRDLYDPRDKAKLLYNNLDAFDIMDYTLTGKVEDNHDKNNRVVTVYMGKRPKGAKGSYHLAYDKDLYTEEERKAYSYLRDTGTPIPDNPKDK

[23] = biological target: T5, Microphthalmia-associated transcription factor (Homo sapiens, UniProt O75030); experiment: reducers of TRPM1 reporter luminescence, concentration series – cell-based, SK-MEL-5, cherry-picked, set 3, MITF inhibitor project, dose response (AID 493073); type: functional;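 note: SK-MEL-5 melanoma cells with luciferase driven by the MITF target TRPM1 promoter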
T5 sequence (O75030 whole entry): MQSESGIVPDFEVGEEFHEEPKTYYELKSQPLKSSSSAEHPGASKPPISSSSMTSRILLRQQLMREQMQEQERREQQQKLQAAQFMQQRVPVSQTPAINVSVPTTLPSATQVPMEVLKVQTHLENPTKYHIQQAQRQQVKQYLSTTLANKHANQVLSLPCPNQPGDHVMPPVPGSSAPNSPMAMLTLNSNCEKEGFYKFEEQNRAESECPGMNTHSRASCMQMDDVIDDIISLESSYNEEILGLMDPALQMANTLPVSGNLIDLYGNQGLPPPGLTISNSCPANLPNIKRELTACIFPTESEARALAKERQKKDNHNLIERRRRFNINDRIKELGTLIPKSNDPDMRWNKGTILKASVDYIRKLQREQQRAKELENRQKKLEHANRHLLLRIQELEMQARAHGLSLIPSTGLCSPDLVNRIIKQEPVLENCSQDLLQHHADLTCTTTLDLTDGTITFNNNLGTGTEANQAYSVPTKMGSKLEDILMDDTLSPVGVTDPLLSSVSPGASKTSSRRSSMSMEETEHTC

[24] = cells; type: functional
[25] = Vero E6 cell cytotoxicity, dose response, cytotoxicity control for non-replicating M. tuberculosis project, secondary assay (AID 492998); type: functional, VeroE6; conditions: Vero C1008
[26] = system: Streptococcus sp. 'group A'; experiment: Streptococcus pyogenes SK(-)GAS viability under kanamycin – luminescence, BacTiterGlo, confirmation, counter-screen for streptokinase expression inhibitor project, dose response (AID 1900); type: functional, organism-based
[27] = HepG2 cell cytotoxicity, dose response, cytotoxicity control for non-replicating M. tuberculosis project (AID 489018); type: functional; conditions: Mycobacterium tuberculosis
[28] = biological target: DNA dC->dU-editing enzyme APOBEC-3G (Homo sapiens, UniProt Q9HC16); experiment: Dose Response confirmation of small molecule APOBEC3G DNA Deaminase Inhibitors via a fluorescence-based single-stranded DNA deaminase assay. [Related pubchem assays (depositor defined):AID493012, AID493028]; type: functional
Chain of DNA dC->dU-editing enzyme APOBEC-3G (Q9HC16 whole entry): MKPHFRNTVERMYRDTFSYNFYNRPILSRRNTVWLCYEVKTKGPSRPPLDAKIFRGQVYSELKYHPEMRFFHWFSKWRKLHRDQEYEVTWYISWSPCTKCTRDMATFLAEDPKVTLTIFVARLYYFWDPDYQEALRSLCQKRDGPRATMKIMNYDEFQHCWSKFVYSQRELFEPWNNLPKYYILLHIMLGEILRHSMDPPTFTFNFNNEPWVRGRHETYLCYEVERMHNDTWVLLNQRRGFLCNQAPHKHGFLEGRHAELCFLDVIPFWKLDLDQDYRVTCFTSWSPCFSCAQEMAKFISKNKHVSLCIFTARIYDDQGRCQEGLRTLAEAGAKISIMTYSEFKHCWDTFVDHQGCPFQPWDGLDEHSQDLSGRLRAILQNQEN

[29] = system: HeLa; experiment: viability loss in HeLa cells – cell-based, 24 h, cherry-picked samples, cytotoxicity control, dose response (AID 504726); type: functional; conditions: Homo sapiens;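 note: potency for cytotoxicity as loss of luminescence signal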
[30] = biological target: Luciferin 4-monooxygenase (Photinus pyralis, UniProt P08659); experiment: inhibition of purified Photinus pyralis luciferase – biochemical, luminescence, dose response (AID 1891)
[31] = biological target: Cyclin-dependent kinase 5/CDK5 activator 1 (Homo sapiens, UniProt Q00535); experiment: blockade of human CDK5 activity – biochemical, cherry-picked samples, set 2, dose response (AID 504545)
[32] = biological target: T6, Hexokinase (Trypanosoma brucei, UniProt Q38C41); experiment: Confirmation assay for inhibitors of Trypanosoma brucei hexokinase 1-Analogue-first series. [Related pubchem assays (depositor defined):AID1430, AID1632, AID2516, AID2560, AID2579, AID2600, AID449725, AID492951]; type: functional
T6 sequence (Q38C41 whole entry): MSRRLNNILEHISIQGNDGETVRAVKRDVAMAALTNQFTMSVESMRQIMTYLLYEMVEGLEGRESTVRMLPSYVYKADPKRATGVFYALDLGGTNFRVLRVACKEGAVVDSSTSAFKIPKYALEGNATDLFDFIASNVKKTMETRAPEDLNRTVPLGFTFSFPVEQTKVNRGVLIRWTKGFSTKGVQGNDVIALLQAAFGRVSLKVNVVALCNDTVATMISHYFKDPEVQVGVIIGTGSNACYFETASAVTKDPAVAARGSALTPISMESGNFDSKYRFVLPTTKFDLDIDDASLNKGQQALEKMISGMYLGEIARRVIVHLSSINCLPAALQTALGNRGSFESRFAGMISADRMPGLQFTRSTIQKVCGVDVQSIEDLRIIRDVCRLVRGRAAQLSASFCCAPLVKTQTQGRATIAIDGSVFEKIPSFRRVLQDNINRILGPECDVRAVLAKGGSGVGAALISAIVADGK

[33] = biological target: T7, Phosphoethanolamine/phosphocholine phosphatase (Homo sapiens, UniProt Q8TCT1); experiment: SAR assay for compounds that inhibit PHOSPHO1. [Related pubchem assays (depositor defined):AID1545, AID1565, AID1574]
T7 sequence (Q8TCT1 whole entry): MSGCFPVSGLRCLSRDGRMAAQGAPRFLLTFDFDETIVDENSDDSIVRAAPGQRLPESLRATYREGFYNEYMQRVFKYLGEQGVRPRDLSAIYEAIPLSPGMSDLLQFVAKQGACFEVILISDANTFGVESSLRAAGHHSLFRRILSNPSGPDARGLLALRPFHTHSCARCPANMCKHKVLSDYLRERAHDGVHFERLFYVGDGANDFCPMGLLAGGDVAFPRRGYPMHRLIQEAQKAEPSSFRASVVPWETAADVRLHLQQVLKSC

COc1ccccc1OCCCOc1cccc(/C=C2\SC(=O)NC2=O)c1
IC50 [1]: 3.82 µM (active) | EC50 [2]: 9.15 µM (active) | EC50 [3]: 9.43 µM (active) | IC50 [4]: > 20 µM (inactive) | IC50 [5]: 15.7 µM (active) | IC50 [6]: > 20 µM (inactive)

COc1ccc(CNC(=O)CSCc2cnn(-c3ccccc3)c2-n2cccc2)cc1
EC50 [7]: 4.8 µM (active)

CC(C)N1CCc2c(sc(NC(=O)c3cc(-c4cccs4)nc4ccccc34)c2C(N)=O)C1
EC50 [8]: > 40 µM (inactive) | CC50 [9]: 6.25 µM (active) | AC50 [10]: 13.2 µM (active) | IC50 [11]: > 20 µM (inactive) | IC50 [12]: > 40 µM (not active)

COc1ccccc1CC(=O)Nc1ccc2c(C)cc(=O)oc2c1
AC50 [13]: 34.5 µM (active)

Cc1ccc(NC(=O)CSc2nnc(Cc3cccn3C)n2-c2ccc(F)cc2)cc1
EC50 [7]: 3.49 µM (active)

CCOC(=O)c1cc(-c2ccc(/C=C3/C(=O)N(c4ccc(C(=O)O)cc4)N=C3C)o2)ccc1Cl
EC50 [14]: 16 µM (active) | IC50 [15]: 66.1 µM (active) | IC50 [16]: 21.2 µM (active) | CC50 [17]: > 25 µM (active) | CC50 [18]: 24.9 µM (active)

Cc1ccc(S(=O)(=O)N2CCCC(NC(=O)N3CCN(c4ccccc4)CC3)C2)cc1 (stereo not drawn)
EC50 [7]: 8.79 µM (active)

N#CC1=C(c2ccccc2)/C(=C/c2ccccc2)OC1=O
CC50 [19]: > 40 µM (active) | EC50 [14]: 6.66 µM (active) | CC50 [20]: 24.1 µM (active) | EC50 [21]: > 150 µM (not active) | EC50 [22]: 2.38 µM (active) | AC50 [23]: 4.25 µM (active) | IC50 [24]: 10 µM (active) | CC50 [25]: > 20 µM (active) | EC50 [26]: 10.6 µM (active)

CCNc1nc(NC(C)(C)C)nc(N2CCCCC2)n1
CC50 [19]: > 40 µM (active) | CC50 [27]: > 20 µM (active) | CC50 [20]: 13.4 µM (active) | IC50 [24]: 28.8 µM (active) | CC50 [17]: > 25 µM (active)

CCn1c(S)nnc1-c1ccc([N+](=O)[O-])cc1
IC50 [28]: 9.77 µM (active) | AC50 [29]: 239 µM (active)

COc1ccc(C(=O)ON=C(N)c2ccccc2)cc1
EC50 [30]: 1.21 µM (active) | AC50 [31]: 17.2 µM (active)

COC(=O)c1ccc(Cl)cc1NS(=O)(=O)c1ccc(OC)cc1
IC50 [32]: > 25 µM (inactive)

COc1ccc(-n2sc3cc(F)ccc3c2=O)cc1
IC50 [33]: 5.42 µM (inactive)

CCOc1ccc(C(=O)Nc2cc(Cl)ccc2C(=O)O)cc1
IC50 [32]: 20.7 µM (active)

O=C(COC(=O)c1ccccc1Cc1ccccc1)NC1CCS(=O)(=O)C1 (stereo not drawn)
AC50 [13]: 4.52 µM (active)

O=C(NCc1ccccc1)n1sc2ccccc2c1=O
IC50 [32]: 4.44 µM (active)

COC(=O)/C(=C\Nc1ccc(Cl)cc1Cl)NC(=O)c1ccc(Cl)cc1Cl
CC50 [9]: > 40 µM (active)

O=[N+]([O-])c1ccc2[nH]c(-c3ccccn3)nc2c1
CC50 [19]: 13.4 µM (active) | CC50 [27]: 17.4 µM (active) | IC50 [24]: 42.1 µM (active) | CC50 [25]: 14.8 µM (active)
